The series can be described thus: In vitro release study (dialysis method). In kind it is physicochemical. The settings on record: PBS pH 5.5, 6.5, 7.4; 37 °C; 100 kD dialysis. The procedure:
The release study was conducted using a dialysis method with PBS as the buffer media at pH 5.5, 6.5, and 7.4 to simulate the endosomal, tumoral, and plasma conditions, respectively. The pH was adjusted using 1 M HCl solution or 1 M NaOH solution as needed to achieve the desired media pH. Briefly, 5 mL of each formulation were placed in Spectrum Float-A-Lyzer G2 dialysis tubes (Thermo Fisher Scientific, Waltham, MA) with a molecular weight cut-off of 100 kD, which were then immersed in 50 mL of release media. The containers were incubated at 37° C. under shaking at 150 rpm for 96 hours. At 0-, 1-, 2-, 4-, 8-, 12-, 24-, 36-, 48-, 72-, and 96-hour intervals, 500 μL of the sample solution was withdrawn from the release media and replaced with an equal amount of fresh medium. The samples were analyzed using the UPLC-UV method previously described. The error bars were obtained by measuring each sample in triplicate.

Structures can show the parent of a compound that is named as a salt.

As for `COc1cccc2c1C(=O)c1c(O)c3c(c(O)c1C2=O)C[C@@](O)(C(=O)CO)C[C@@H]3O[C@H]1C[C@H](N)[C@H](O)[C@H](C)O1` [DOX solution, Doxorubicin (hydrochloride salt)], the “DOX passed through membrane by 24 hours” value is recorded as approximately 100% and the “DOX released (passed dialysis membrane) within first 4 hours” value is on record as “About 80%”.
